Earlier results on 31 compounds are cited in the PKSmart pharmacokinetics tables (Seal et al. 2025).

The structures appear in SMILES notation. Where a SMILES comes first, the peptide text is derived from it.

This series in a line: Lombardo, Berellini, Obach 2018, Drug Metab Dispos 46:1466, doi 10.1124/dmd.118.082966. As to conditions: human; for clearance / half-life / MRT / Vd: in vivo, iv; for fraction unbound: plasma.

In general, clearance refers to the rate of elimination divided by the concentration. A word on the half-life: it is the time in which the quantity being followed falls by half. For `CC(=O)NC(CO)C(=O)NC(CC(=O)O)C(=O)NC(CCCCN)C(=O)N1CCCC1C(=O)O` (stereo not given) (Ac-SDKP-OH; configuration not given here), the clearance was 18.7 mL/min/kg and the half-life is 0.08 h.
Broadly, the MRT is the average time that molecules of a dose stay in the body. As usually defined, the Vd is a proportionality between amount in the body and measured concentration, not a real space. Usually fraction unbound stands for free concentration divided by total concentration. With `Clc1cccc(Cl)c1NC1=NCCN1`, the MRT is 14 h, the Vd was 3.3 L/kg, the clearance was 4 mL/min/kg and the half-life was 7.6 h. Besides, the fraction unbound was 0.56.
On to `COc1ccccc1Oc1c(NS(=O)(=O)c2ccc(C(C)(C)C)cc2)nc(-c2ncccn2)nc1OCCO`, for which the mean residence time (MRT) was 2.3 h, the Vd is 0.29 L/kg, the clearance is 2.1 mL/min/kg and the half-life was 4.1 h. For the same compound, the fraction unbound was 0.037.
Regarding `CNCCC=C1c2ccccc2CCc2ccccc21`, the MRT was 37 h, the Vd was 22 L/kg, the clearance was 10 mL/min/kg and the half-life was 30 h.
In the case of `CC1C(=O)O[C@H]2C[C@@]34[C@H]5C[C@@H](C(C)(C)C)C36C(O)C(=O)O[C@H]6OC4(C(=O)O5)[C@@]12O` (stereo not given in full), the MRT is 4.6 h, the Vd is 0.62 L/kg, the clearance was 2.3 mL/min/kg and the half-life is 3.8 h.
As for `COc1c(N2CCC/C(=C(\F)CN)C2)c(F)cc2c(=O)c(C(=O)O)cn(C3CC3)c12`, the MRT was 24.2 h, the Vd is 1.13 L/kg, the clearance is 0.78 mL/min/kg and the half-life is 19.6 h. Also, the fraction unbound is 0.34.
For the compound `Cc1c(C)c2ccc(OCCCN3CCN(Cc4ccc(Cl)cc4)CC3)cc2oc1=O`, the MRT is 16.5 h, the distribution volume (Vd) was 1.3 L/kg, the clearance is 1.3 mL/min/kg and the half-life was 19.2 h. Besides, the fraction unbound is 0.05.
As to `COc1ccc(OC)c([C@H](O)CNC(=O)CN)c1`, the MRT was 0.4 h, the Vd is 0.67 L/kg, the clearance is 27.9 mL/min/kg and the half-life was 0.6 h. For the same compound, the fraction unbound was 0.7.
On to `CC(=O)NC(CSSCC(N)C(=O)O)C(=O)NC(C)C(=O)NC(CCCNC(=N)N)C(=O)NC(CCCNC(=N)N)C(=O)NC(CCCNC(=N)N)C(=O)NC(C)C(=O)NC(CCCNC(=N)N)C(N)=O` (stereo not given), for which the MRT is 19.9 h, the Vd was 1.98 L/kg and the clearance is 1.67 mL/min/kg.
Take `Cc1[nH]cnc1CN1CCc2c(c3ccccc3n2C)C1=O`: the MRT is 2.1 h, the Vd is 1.1 L/kg, the clearance is 8.7 mL/min/kg and the half-life is 1.6 h.
On to `C[C@]12CC[C@H]3[C@@H](CC=C4CC(=O)CC[C@@]43C)[C@@H]1CC[C@@H]2O`, for which the MRT was 0.25 h, the Vd is 0.35 L/kg, the clearance was 24.5 mL/min/kg and the half-life was 0.17 h. The fraction unbound was 0.057.
Take `C=CCc1ccccc1OCC(O)CNC(C)C` (stereo not given): the mean residence time (MRT) is 3.6 h, the Vd was 3.2 L/kg, the clearance is 15 mL/min/kg and the half-life was 2.5 h.
For the compound `CN(C)CCN1C(=O)c2cccc3cc([N+](=O)[O-])cc(c23)C1=O`, the MRT was 5.6 h, the distribution volume (Vd) is 11.3 L/kg, the clearance is 34.6 mL/min/kg and the half-life is 28.7 h.
As for `CN(CC(N)=O)C(=O)N(CCCl)N=O`, the mean residence time (MRT) was 1.4 h, the Vd is 0.76 L/kg, the clearance is 9 mL/min/kg and the half-life is 1 h.
As for `C[C@@H](N/C(=N\c1ccncc1)NC#N)C(C)(C)C`, the MRT was 3.2 h, the Vd is 1.1 L/kg, the clearance is 5.68 mL/min/kg and the half-life is 2.5 h. Also, the fraction unbound is 0.6.
On to `Cc1ncsc1CCCl`, for which the MRT was 3.3 h, the volume of distribution (Vd) was 6.6 L/kg, the clearance was 33 mL/min/kg and the half-life is 4.5 h. In addition, the fraction unbound is 0.36.
Turning to `O=c1[nH]cnc2[nH]ncc12`, the MRT was 0.88 h and the distribution volume (Vd) was 0.58 L/kg.
With `CC(C)CC(NC(=O)C(CCc1ccccc1)NC(=O)CN1CCOCC1)C(=O)NC(Cc1ccccc1)C(=O)NC(CC(C)C)C(=O)[C@@]1(C)CO1` (stereo not given in full), the MRT was 0.05 h, the Vd was 0.13 L/kg, the clearance is 39.5 mL/min/kg and the half-life is 1.1 h. Besides, the free fraction (fraction unbound) is 0.02.
With `COc1ccc(CCN(C)CCCN2Cc3cc(OC)c(OC)cc3C2=O)cc1OC`, the MRT is 2.62 h, the volume of distribution (Vd) is 2.4 L/kg, the clearance was 15.7 mL/min/kg and the half-life was 2.04 h. In addition, the fraction unbound is 0.12.
In the case of `O=C(/C=C/c1ccc(O)c(O)c1)O[C@@H]1[C@H](O)C[C@@](O)(C(=O)O)C[C@H]1OC(=O)/C=C/c1ccc(O)c(O)c1`, the MRT was 0.3 h, the Vd is 0.63 L/kg, the clearance was 34.6 mL/min/kg and the half-life is 0.57 h.
On to `COP(=O)(c1cc(C)cc(/C=C/C#N)c1)c1c(C(N)=O)[nH]c2ccc(Cl)cc12` (stereo not given), for which the MRT was 5.5 h, the volume of distribution (Vd) is 0.56 L/kg, the clearance was 1.71 mL/min/kg and the half-life is 4.4 h.
For the compound `NC[C@H]1O[C@H](O[C@H]2[C@H](O)[C@@H](O[C@H]3O[C@H](CO)[C@@H](O)[C@H](N)[C@H]3O)[C@H](N)C[C@@H]2N)[C@H](O)[C@@H](O)[C@@H]1O`, the MRT was 3.1 h, the Vd was 0.26 L/kg, the clearance is 1.4 mL/min/kg and the half-life is 2.1 h.
`O=C1NC(c2ccccc2)(c2ccccc2)C(=O)N1COP(=O)(O)O`: the MRT is 0.17 h, the Vd was 0.06 L/kg, the clearance was 3.5 mL/min/kg and the half-life is 0.16 h. Also, the fraction unbound was 0.05.
As to `CCc1c(O)cc(O)c(C(=O)c2ccc(OCCN3CCOCC3)c(OC)c2)c1CC(=O)N(CCOC)CCOC`, the MRT was 3.21 h, the Vd is 1.32 L/kg, the clearance was 6.87 mL/min/kg and the half-life is 5.94 h.
With `C[C@@H]1C[C@H]2[C@@H]3C[C@H](F)C4=CC(=O)C=C[C@]4(C)[C@H]3[C@@H](O)C[C@]2(C)C1C(=O)CO` (stereo not given in full), the MRT was 1.6 h, the Vd was 0.68 L/kg, the clearance was 7 mL/min/kg and the half-life is 1.3 h. For the same compound, the fraction unbound is 0.04.
Regarding `COc1c(OCCCN2CCOCC2)ccc2c1N=C(NC(=O)c1cnc(N)nc1)N1CCN=C21`, the MRT is 26.8 h, the Vd is 10.3 L/kg, the clearance is 6.42 mL/min/kg and the half-life is 25.2 h.
As to `NCCCCC(NC1CCc2ccccc2N(CC(=O)O)C1=O)C(=O)O` (stereo not given), the MRT is 29.3 h, the Vd was 1.98 L/kg and the clearance is 1.23 mL/min/kg.
For the compound `C/C=C(\C)C(=O)O[C@H]1[C@H](OC(C)=O)[C@]2(CO)[C@H](O)C[C@]3(C)C(=CC[C@@H]4[C@@]5(C)CC[C@H](O[C@@H]6OC(C(=O)O)[C@@H](O[C@@H]7O[C@H](CO)[C@@H](O)[C@H](O)[C@H]7O)[C@H](O)[C@H]6O[C@@H]6O[C@H](CO)[C@@H](O)[C@H](O)[C@H]6O)[C@](C)(CO)[C@@H]5CC[C@]43C)[C@@H]2CC1(C)C` (stereo not given in full), the mean residence time MRT is 2.85 h, the Vd was 0.28 L/kg, the clearance was 1.65 mL/min/kg and the half-life was 2.4 h.
Take `COc1ccccc1Oc1c(NS(=O)(=O)c2ccc(C(C)C)cn2)nc(-c2ccnc(-c3nnn[nH]3)c2)nc1OCCO`: the Vd was 0.28 L/kg, the clearance is 8.1 mL/min/kg, the half-life was 3.8 h and the fraction unbound is 0.0085.
Turning to `COC1C(=O)C(C)C[C@H](C)/C=C/C=C/C=C(\C)[C@@H](OC)C[C@@H]2CC[C@@H](C)[C@@](O)(O2)C(=O)C(=O)N2CCCCC2C(=O)O[C@H]([C@H](C)C[C@@H]2CC[C@@H](OC(=O)C(C)(CO)CO)[C@H](OC)C2)CC(=O)C(C)=CC(C)[C@H]1O` (stereo not given in full), the MRT is 10 h, the Vd is 3 L/kg, the clearance was 7.7 mL/min/kg and the half-life is 18 h.
Regarding `CC/C=C\C/C=C\C/C=C\C/C=C\C/C=C\C/C=C\CCC(=O)OC(C(=O)O[C@H]1C[C@@]2(O)[C@@H](OC(=O)c3ccccc3)[C@@H]3[C@]4(OC(C)=O)CO[C@@H]4C[C@H](O)[C@@]3(C)C(=O)C(OC(C)=O)=C(C1C)C2(C)C)[C@@H](NC(=O)c1ccccc1)c1ccccc1` (stereo not given in full), the MRT was 45 h, the clearance is 0.025 mL/min/kg, the half-life is 60 h and the fraction unbound is 0.0038.
